Measurements as given in patent US20110319392A1, “Thiazole Sulfonamide And Oxazole Sulfonamide Kinase Inhibitors” (priority 2009, published 2011).

Key:
EGFR = target: T1, EGFR (Homo sapiens, UniProt P00533); test: EGFR substrate phosphorylation assay (HTRF); format: biochemical
T1 construct: made in house; host or cells: baculovirus expression system
Summary of the method: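 Baculovirus-expressed EGFR (0.8 nM) or ErbB2 (10 nM) in enzyme mix, preincubated 1 h at 20 °C with compound (0.00027–47.6 μM final), then 90 min at 20 °C with substrate mix of 20 μM ATP, 0.8 uM biotinylated Peptide C, MnCl2, MOPS pH 7.5. Phosphotyrosine by HTRF; pIC50 reported.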

Colo205 tumor cells = test: Cell growth inhibition assay (CellTiter-Glo), Colo205; format: cell-based, Human; conditions: Homo sapiens, COLO 205, 72 h; 3 days incubation
Summary of the method: (§1)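 Cells plated at 500 cells/well in their growth media, dosed next day with nine-step 1:3 compound dilutions (final DMSO 0.2%), then incubated 3 days at 37° C, 5% CO2. Total ATP read by CellTiter-Glo luminescence as a surrogate for cell number; IC50 interpolated from 4-parameter fit versus DMSO controls.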

A375P F11s tumor cells = test: Cell growth inhibition assay (CellTiter-Glo), A375P F11s; format: cell-based, Human; conditions: Homo sapiens
Summary of the method: as §1

HT-29 tumor cells = test: Cell growth inhibition assay (CellTiter-Glo), HT-29; format: cell-based, Human; conditions: Homo sapiens
Summary of the method: as §1

T1 sequence (P00533 25-1210): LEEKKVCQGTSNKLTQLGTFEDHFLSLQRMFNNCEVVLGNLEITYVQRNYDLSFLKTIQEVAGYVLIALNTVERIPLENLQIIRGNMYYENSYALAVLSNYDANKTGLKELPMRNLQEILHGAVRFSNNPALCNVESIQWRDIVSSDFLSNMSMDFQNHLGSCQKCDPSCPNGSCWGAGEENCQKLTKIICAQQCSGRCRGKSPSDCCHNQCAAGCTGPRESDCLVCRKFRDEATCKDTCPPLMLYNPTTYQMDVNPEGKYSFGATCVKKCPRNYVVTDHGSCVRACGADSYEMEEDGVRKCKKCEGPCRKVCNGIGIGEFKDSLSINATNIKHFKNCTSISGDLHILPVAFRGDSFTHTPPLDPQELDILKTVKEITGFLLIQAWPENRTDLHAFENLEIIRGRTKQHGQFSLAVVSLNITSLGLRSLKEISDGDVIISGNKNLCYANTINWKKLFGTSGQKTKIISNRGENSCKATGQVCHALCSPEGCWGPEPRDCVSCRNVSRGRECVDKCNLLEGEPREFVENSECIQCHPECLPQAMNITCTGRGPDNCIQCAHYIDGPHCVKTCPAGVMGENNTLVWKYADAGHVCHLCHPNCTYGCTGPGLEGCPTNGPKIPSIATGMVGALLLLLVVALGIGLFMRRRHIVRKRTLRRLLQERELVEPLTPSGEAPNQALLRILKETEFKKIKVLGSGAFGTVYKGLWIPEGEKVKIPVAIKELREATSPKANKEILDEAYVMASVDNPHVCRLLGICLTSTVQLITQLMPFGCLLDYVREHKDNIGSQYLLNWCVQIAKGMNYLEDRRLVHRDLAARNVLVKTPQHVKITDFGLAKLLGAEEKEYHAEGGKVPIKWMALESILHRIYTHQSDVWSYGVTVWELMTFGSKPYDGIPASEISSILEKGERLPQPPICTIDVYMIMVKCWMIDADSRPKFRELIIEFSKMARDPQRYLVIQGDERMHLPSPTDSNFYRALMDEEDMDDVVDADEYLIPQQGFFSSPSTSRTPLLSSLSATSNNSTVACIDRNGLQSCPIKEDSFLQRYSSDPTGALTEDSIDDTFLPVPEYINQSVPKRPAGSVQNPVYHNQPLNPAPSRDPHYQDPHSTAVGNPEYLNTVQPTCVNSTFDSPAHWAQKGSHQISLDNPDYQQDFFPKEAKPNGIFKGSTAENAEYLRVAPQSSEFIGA

COc1cc(N2CCN(CCF)CC2)ccc1Nc1nccc(-c2sc(C(C)C)nc2-c2cccc(NS(=O)(=O)c3c(F)cccc3F)c2)n1 [Example 79]
IC50 (EGFR): 100 to 1000 nM
IC50 (Colo205 tumor cells): 100 to 1000 nM
IC50 (A375P F11s tumor cells): 100 to 1000 nM
IC50 (HT-29 tumor cells): 100 to 1000 nM

CC(C)c1nc(-c2cccc(NS(=O)(=O)c3c(F)cccc3F)c2)c(-c2ccnc(Nc3ccc(N4CCCN(CCS(C)(=O)=O)CC4)nc3)n2)s1 [Example 88]
IC50 (EGFR): 100 to 1000 nM
IC50 (Colo205 tumor cells): < 100 nM
IC50 (A375P F11s tumor cells): < 100 nM
IC50 (HT-29 tumor cells): < 100 nM

CC(=O)N1CCN(c2ccc(Nc3nccc(-c4sc(C(C)C)nc4-c4cccc(NS(=O)(=O)c5cc(F)ccc5F)c4)n3)cn2)CC1 [Example 96]
IC50 (EGFR): 100 to 1000 nM
IC50 (Colo205 tumor cells): < 100 nM
IC50 (A375P F11s tumor cells): < 100 nM
IC50 (HT-29 tumor cells): < 100 nM

CC(C)c1nc(-c2cccc(NS(=O)(=O)c3c(F)cccc3F)c2)c(-c2ccnc(Nc3ccc(N4CCN(CCO)CC4)nc3)n2)s1 [Example 80]
IC50 (EGFR): < 100 nM
IC50 (Colo205 tumor cells): < 100 nM
IC50 (A375P F11s tumor cells): < 100 nM
IC50 (HT-29 tumor cells): 100 to 1000 nM

CC(C)c1nc(-c2cc(F)cc(NS(=O)(=O)c3c(F)cccc3F)c2)c(-c2ccnc(Nc3ccc(N4CCOCC4)c(F)c3)n2)s1 [Example 85]
IC50 (EGFR): > 1000 nM
IC50 (Colo205 tumor cells): < 100 nM
IC50 (A375P F11s tumor cells): < 100 nM
IC50 (HT-29 tumor cells): 100 to 1000 nM

CC(C)c1nc(-c2ccc(F)c(NS(=O)(=O)c3c(F)cccc3F)c2)c(-c2ccnc(Nc3ccc(N4CCN(CCS(C)(=O)=O)CC4)c(F)c3)n2)s1 [Example 95]
IC50 (EGFR): 100 to 1000 nM
IC50 (Colo205 tumor cells): < 100 nM
IC50 (A375P F11s tumor cells): 100 to 1000 nM
IC50 (HT-29 tumor cells): > 1000 nM

CC(C)c1nc(-c2cc(F)cc(NS(=O)(=O)c3c(F)cccc3F)c2)c(-c2ccnc(Nc3ccc(N4CCOCC4)nc3)n2)s1 [Example 84]
IC50 (EGFR): 100 to 1000 nM
IC50 (Colo205 tumor cells): < 100 nM
IC50 (A375P F11s tumor cells): < 100 nM
IC50 (HT-29 tumor cells): < 100 nM

CC(C)c1nc(-c2cccc(NS(=O)(=O)c3c(F)cccc3F)c2)c(-c2ccnc(Nc3cccc(N4CCN(C)CC4)c3)n2)s1 [Example 81]
IC50 (EGFR): < 100 nM
IC50 (Colo205 tumor cells): < 100 nM
IC50 (A375P F11s tumor cells): < 100 nM
IC50 (HT-29 tumor cells): 100 to 1000 nM

CC(C)c1nc(-c2cccc(NS(=O)(=O)c3ccccc3)c2)c(-c2ccnc(Nc3ccc(N4CCN(CCS(C)(=O)=O)CC4)c(F)c3F)n2)s1 [Example 74]
IC50 (EGFR): > 1000 nM
IC50 (Colo205 tumor cells): 100 to 1000 nM
IC50 (A375P F11s tumor cells): 100 to 1000 nM
IC50 (HT-29 tumor cells): > 1000 nM

CC(=O)N1CCc2cc(Nc3nccc(-c4sc(C(C)C)nc4-c4cccc(NS(=O)(=O)c5ccccc5)c4)n3)ccc21 [Example 71]
IC50 (EGFR): 100 to 1000 nM
IC50 (Colo205 tumor cells): < 100 nM
IC50 (A375P F11s tumor cells): < 100 nM
IC50 (HT-29 tumor cells): < 100 nM

Cc1cc(N2CCC(N3CCCCC3)CC2)ccc1Nc1nccc(-c2sc(C(C)C)nc2-c2cccc(NS(=O)(=O)c3c(F)cccc3F)c2)n1 [Example 91]
IC50 (EGFR): < 100 nM
IC50 (Colo205 tumor cells): < 100 nM
IC50 (A375P F11s tumor cells): 100 to 1000 nM
IC50 (HT-29 tumor cells): > 1000 nM

CC(C)c1nc(-c2cccc(NS(=O)(=O)c3c(F)cccc3F)c2)c(-c2ccnc(Nc3cc(F)c(N4CCN(CCS(C)(=O)=O)CC4)cc3F)n2)s1 [Example 87]
IC50 (EGFR): > 1000 nM
IC50 (Colo205 tumor cells): < 100 nM
IC50 (A375P F11s tumor cells): < 100 nM
IC50 (HT-29 tumor cells): 100 to 1000 nM

CC(C)c1nc(-c2cccc(NS(=O)(=O)c3ccccc3)c2)c(-c2ccnc(Nc3ccc(CC4CCN(CCS(C)(=O)=O)CC4)c(F)c3)n2)s1 [Example 72]
IC50 (EGFR): 100 to 1000 nM
IC50 (Colo205 tumor cells): 100 to 1000 nM
IC50 (A375P F11s tumor cells): 100 to 1000 nM
IC50 (HT-29 tumor cells): 100 to 1000 nM

CCc1nc(-c2cccc(NS(=O)(=O)c3ccccc3)c2)c(-c2ccnc(Nc3ccc(N4CCOCC4)c(F)c3)n2)s1 [Example 4]
IC50 (EGFR): > 1000 nM
IC50 (Colo205 tumor cells): 100 to 1000 nM
IC50 (A375P F11s tumor cells): 100 to 1000 nM
IC50 (HT-29 tumor cells): 100 to 1000 nM

CC(C)c1nc(-c2cccc(NS(=O)(=O)c3c(F)cccc3F)c2)c(-c2ccnc(Nc3ccc(N4CCCNCC4)nc3)n2)s1 [Example 82]
IC50 (EGFR): < 100 nM
IC50 (Colo205 tumor cells): < 100 nM
IC50 (A375P F11s tumor cells): < 100 nM
IC50 (HT-29 tumor cells): 100 to 1000 nM

C=C(C)c1nc(-c2cccc(NS(=O)(=O)c3c(F)cccc3F)c2)c(-c2ccnc(Nc3ccc(N4CCN(CCF)CC4)c(F)c3)n2)s1 [Example 93]
IC50 (EGFR): 100 to 1000 nM
IC50 (Colo205 tumor cells): < 100 nM
IC50 (A375P F11s tumor cells): 100 to 1000 nM
IC50 (HT-29 tumor cells): > 1000 nM

CCc1nc(-c2cccc(NS(=O)(=O)c3ccccc3)c2)c(-c2ccnc(Nc3ccc(OC)c(N4CCN(CCS(C)(=O)=O)CC4)c3)n2)s1 [Example 5, N-[3-(2-Ethyl-5-{2-[(4-(methyloxy)-3-{4-[2-(methylsulfonyl)ethyl]-1-piperazinyl}phenyl)amino]-4-pyrimidinyl}-1,3-thiazol-4-yl)phenyl]benzenesulfonamide]
IC50 (EGFR): 100 to 1000 nM
IC50 (Colo205 tumor cells): < 100 nM
IC50 (A375P F11s tumor cells): < 100 nM
IC50 (HT-29 tumor cells): < 100 nM

CCc1nc(-c2cccc(NS(=O)(=O)c3ccccc3)c2)c(-c2ccnc(Nc3ccc(N4CCN(C(C)=O)CC4)nc3)n2)s1 [Example 3, N-{3-[5-(2-{[6-(4-Acetyl-1-piperazinyl)-3-pyridinyl]amino}-4-pyrimidinyl)-2-ethyl-1,3-thiazol-4-yl]phenyl}benzenesulfonamide]
IC50 (EGFR): > 1000 nM
IC50 (Colo205 tumor cells): < 100 nM
IC50 (A375P F11s tumor cells): < 100 nM
IC50 (HT-29 tumor cells): 100 to 1000 nM

CC(C)c1nc(-c2cc(F)cc(NS(=O)(=O)c3ccc(F)cc3)c2)c(-c2ccnc(Nc3ccc(N4CCOCC4)c(F)c3)n2)s1 [Example 83]
IC50 (EGFR): > 1000 nM
IC50 (Colo205 tumor cells): 100 to 1000 nM
IC50 (A375P F11s tumor cells): 100 to 1000 nM
IC50 (HT-29 tumor cells): > 1000 nM

CC(C)c1nc(-c2cccc(NS(=O)(=O)c3ccccc3)c2)c(-c2ccnc(Nc3ccc(F)c(N4CCN(CCS(C)(=O)=O)CC4)c3)n2)s1 [Example 73]
IC50 (EGFR): 100 to 1000 nM
IC50 (Colo205 tumor cells): < 100 nM
IC50 (A375P F11s tumor cells): < 100 nM
IC50 (HT-29 tumor cells): 100 to 1000 nM

CC(C)c1nc(-c2cccc(NS(=O)(=O)c3c(F)cccc3F)c2)c(-c2ccnc(Nc3ccc(N4CC[C@@H](O)C4)nc3)n2)s1 [Example 89]
IC50 (EGFR): 100 to 1000 nM
IC50 (Colo205 tumor cells): < 100 nM
IC50 (A375P F11s tumor cells): < 100 nM
IC50 (HT-29 tumor cells): > 1000 nM

CC(C)c1nc(-c2cccc(NS(=O)(=O)c3c(F)cccc3F)c2)c(-c2ccnc(Nc3ccc(N4CCN(C(C)C)CC4)cc3O)n2)s1 [Example 78]
IC50 (EGFR): 100 to 1000 nM
IC50 (Colo205 tumor cells): < 100 nM
IC50 (A375P F11s tumor cells): < 100 nM
IC50 (HT-29 tumor cells): > 1000 nM

CC(C)c1nc(-c2cccc(NS(=O)(=O)c3ccccc3)c2)c(-c2ccnc(Nc3ccc(N4CCOCC4)cn3)n2)s1 [Example 92]
IC50 (EGFR): > 1000 nM
IC50 (Colo205 tumor cells): 100 to 1000 nM
IC50 (A375P F11s tumor cells): 100 to 1000 nM
IC50 (HT-29 tumor cells): > 1000 nM
